Values belong to the compound of their own block, whether it stands above or below them.
Experiments:
[1] = target: Serine/threonine-protein kinase B-raf (Homo sapiens, UniProt P15056); experiment: Inhibition of b-Raf
[2] = Inhibition of p70S6K
[3] = target: Insulin-like growth factor 1 receptor (Homo sapiens, UniProt P08069); experiment: Inhibition of IGFR1
[4] = target: Protein kinase C alpha type (Homo sapiens, UniProt P17252); experiment: Inhibition of PKCalpha
[5] = target: Cyclin-dependent kinase 1 (Homo sapiens, UniProt P06493); experiment: Inhibition of CDK1
[6] = target: MAP kinase-activated protein kinase 2 (Homo sapiens, UniProt P49137); experiment: Inhibition of MK2
MAP kinase-activated protein kinase 2, sequence (P49137 whole entry): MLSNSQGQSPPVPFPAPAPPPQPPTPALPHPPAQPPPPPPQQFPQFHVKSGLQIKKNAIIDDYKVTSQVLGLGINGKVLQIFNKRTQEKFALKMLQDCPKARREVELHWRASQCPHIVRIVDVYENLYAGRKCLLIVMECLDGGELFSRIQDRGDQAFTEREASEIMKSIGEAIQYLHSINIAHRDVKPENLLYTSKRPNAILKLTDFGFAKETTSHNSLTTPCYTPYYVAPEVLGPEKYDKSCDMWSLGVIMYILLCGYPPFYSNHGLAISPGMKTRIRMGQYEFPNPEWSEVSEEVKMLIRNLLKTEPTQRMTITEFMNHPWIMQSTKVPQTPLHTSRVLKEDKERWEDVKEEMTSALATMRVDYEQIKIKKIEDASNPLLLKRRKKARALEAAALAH

[7] = Inhibition of PKA
[8] = target: 3-phosphoinositide-dependent protein kinase 1 (Homo sapiens, UniProt O15530); experiment: Inhibition of PDK1
[9] = target: Cyclin-dependent kinase 2 (Homo sapiens, UniProt P24941); experiment: Inhibition of CDK2
LoVo = experiment: Antiproliferative activity against human LoVo cells; type: functional, cell-based
[10] = target: Mitogen-activated protein kinase kinase kinase kinase 2 (Homo sapiens, UniProt Q12851); experiment: Inhibition of GCK
[11] = target: Rho-associated protein kinase 1 (Homo sapiens, UniProt Q13464); experiment: Inhibition of ROCK1
[12] = target: Mitogen-activated protein kinase 14 (Homo sapiens, UniProt Q16539); experiment: Inhibition of P38alpha
Mitogen-activated protein kinase 14, sequence (Q16539 whole entry): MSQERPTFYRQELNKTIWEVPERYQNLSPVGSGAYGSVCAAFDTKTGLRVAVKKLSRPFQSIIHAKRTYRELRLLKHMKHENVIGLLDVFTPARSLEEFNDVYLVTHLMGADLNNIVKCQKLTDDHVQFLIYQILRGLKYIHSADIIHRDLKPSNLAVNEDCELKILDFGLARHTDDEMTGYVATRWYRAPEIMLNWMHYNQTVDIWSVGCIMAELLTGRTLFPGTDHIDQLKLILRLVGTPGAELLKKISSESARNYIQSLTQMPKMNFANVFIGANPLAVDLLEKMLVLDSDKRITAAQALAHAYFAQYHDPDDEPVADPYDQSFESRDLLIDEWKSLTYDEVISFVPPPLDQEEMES

[13] = Half life in rat microsomes; type: ADME, Microsome
[14] = target: Mitogen-activated protein kinase kinase kinase 8 (Homo sapiens, UniProt P41279); experiment: Inhibition of TPL2
Mitogen-activated protein kinase kinase kinase 8, sequence (P41279 whole entry): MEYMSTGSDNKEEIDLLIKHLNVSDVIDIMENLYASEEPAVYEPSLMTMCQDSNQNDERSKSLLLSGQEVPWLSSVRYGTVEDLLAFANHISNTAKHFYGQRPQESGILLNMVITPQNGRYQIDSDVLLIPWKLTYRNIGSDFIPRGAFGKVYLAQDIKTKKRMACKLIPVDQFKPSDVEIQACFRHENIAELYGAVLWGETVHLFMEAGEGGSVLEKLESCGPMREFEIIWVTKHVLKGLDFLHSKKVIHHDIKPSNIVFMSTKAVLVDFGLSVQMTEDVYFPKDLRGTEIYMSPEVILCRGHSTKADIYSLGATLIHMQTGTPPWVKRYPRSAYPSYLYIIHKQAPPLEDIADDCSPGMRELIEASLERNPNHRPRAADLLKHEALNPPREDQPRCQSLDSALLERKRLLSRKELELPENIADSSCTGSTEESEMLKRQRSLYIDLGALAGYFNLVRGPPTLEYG

A-375 = experiment: Antiproliferative activity against human A375 cells; type: functional, cell-based
[15] = target: Mitogen-activated protein kinase 1 (Homo sapiens, UniProt P28482); experiment: Inhibition of ERK2
HT-29 = experiment: Antiproliferative activity against human HT-29 cells; type: functional, cell-based
[16] = Inhibition of CK1gamma
Caco-2 = experiment: Antiproliferative activity against human Caco-2 cells; type: functional, cell-based
[17] = Antiproliferative activity against human WM266.4 cells; type: functional, cell-based; settings: WM 266-4
[18] = target: Proto-oncogene tyrosine-protein kinase Src (Homo sapiens, UniProt P12931); experiment: Inhibition of Src
Proto-oncogene tyrosine-protein kinase Src, sequence (P12931 2-536 limits assumed): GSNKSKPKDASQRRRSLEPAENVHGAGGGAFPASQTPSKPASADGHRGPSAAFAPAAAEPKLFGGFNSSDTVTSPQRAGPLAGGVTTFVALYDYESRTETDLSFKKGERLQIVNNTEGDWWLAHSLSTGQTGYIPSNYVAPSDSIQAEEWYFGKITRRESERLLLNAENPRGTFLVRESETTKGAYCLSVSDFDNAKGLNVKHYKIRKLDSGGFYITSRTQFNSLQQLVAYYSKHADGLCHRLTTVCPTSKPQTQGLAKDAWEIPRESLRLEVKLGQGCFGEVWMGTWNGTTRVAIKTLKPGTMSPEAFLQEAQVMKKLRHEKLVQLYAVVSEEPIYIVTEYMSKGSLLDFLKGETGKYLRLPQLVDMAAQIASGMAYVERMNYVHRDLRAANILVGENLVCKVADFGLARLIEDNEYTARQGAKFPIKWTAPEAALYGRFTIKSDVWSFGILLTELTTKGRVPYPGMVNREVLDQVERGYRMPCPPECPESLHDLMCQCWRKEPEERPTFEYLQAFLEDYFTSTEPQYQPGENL

[19] = Inhibition of RSK
[20] = target: Serine/threonine-protein kinase mTOR (Homo sapiens, UniProt P42345); experiment: Inhibition of mTOR
[21] = target: Serine/threonine-protein kinase Chk1 (Homo sapiens, UniProt O14757); experiment: Inhibition of CHK1
Serine/threonine-protein kinase Chk1, sequence (O14757 whole entry): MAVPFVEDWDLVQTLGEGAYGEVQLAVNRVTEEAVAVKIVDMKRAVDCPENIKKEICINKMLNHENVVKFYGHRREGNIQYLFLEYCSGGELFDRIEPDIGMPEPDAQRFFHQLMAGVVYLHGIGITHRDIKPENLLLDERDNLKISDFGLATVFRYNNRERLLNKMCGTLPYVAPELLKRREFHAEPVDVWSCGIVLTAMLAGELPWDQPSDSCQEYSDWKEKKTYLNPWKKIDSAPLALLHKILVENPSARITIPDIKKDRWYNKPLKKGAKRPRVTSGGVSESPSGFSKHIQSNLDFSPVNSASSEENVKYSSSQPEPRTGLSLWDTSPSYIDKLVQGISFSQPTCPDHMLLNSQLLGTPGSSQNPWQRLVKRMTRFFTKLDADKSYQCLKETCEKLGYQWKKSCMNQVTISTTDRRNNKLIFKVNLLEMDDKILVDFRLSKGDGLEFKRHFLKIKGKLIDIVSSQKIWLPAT

[22] = Metabolic stability in nude mouse microsomes assessed as half life; type: ADME, Microsome
[23] = target: Inhibitor of nuclear factor kappa-B kinase subunit beta (Homo sapiens, UniProt O14920); experiment: Inhibition of IKK-beta
Inhibitor of nuclear factor kappa-B kinase subunit beta, sequence (O14920 whole entry): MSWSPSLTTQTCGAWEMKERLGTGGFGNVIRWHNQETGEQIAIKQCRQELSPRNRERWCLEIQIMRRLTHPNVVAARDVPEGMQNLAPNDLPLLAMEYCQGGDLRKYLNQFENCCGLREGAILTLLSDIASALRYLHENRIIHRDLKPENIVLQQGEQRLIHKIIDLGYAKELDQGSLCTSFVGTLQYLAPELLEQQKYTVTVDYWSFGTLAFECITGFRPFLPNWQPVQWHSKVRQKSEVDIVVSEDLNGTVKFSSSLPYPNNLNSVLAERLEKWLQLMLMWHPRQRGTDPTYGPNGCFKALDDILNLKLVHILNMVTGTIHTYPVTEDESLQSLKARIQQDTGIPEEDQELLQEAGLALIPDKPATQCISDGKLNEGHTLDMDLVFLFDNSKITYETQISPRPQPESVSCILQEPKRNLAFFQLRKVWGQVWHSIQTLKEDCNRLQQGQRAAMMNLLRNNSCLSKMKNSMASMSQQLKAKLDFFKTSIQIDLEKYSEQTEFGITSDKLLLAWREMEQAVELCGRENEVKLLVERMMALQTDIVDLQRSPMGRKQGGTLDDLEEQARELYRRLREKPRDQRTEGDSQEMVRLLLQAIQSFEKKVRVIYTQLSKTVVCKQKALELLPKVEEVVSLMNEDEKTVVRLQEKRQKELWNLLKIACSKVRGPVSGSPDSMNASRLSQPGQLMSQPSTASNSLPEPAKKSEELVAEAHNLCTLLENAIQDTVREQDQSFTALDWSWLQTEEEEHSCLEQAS

[24] = target: Tyrosine-protein kinase Lck (Homo sapiens, UniProt P06239); experiment: Inhibition of LCK
[25] = target: Serine/threonine-protein kinase PLK1 (Homo sapiens, UniProt P53350); experiment: Inhibition of PLK1
[26] = Permeability at pH 7.4 by PAMPA; type: ADME; settings: read-out: permeability
[27] = target: Mitogen-activated protein kinase 8 (Homo sapiens, UniProt P45983); experiment: Inhibition of JNK1
[28] = target: Tyrosine-protein kinase ABL1 (Homo sapiens, UniProt P00519); experiment: Inhibition of Abl1
[29] = target: Tyrosine-protein kinase Fyn (Homo sapiens, UniProt P06241); experiment: Inhibition of Fyn
Tyrosine-protein kinase Fyn, sequence (P06241 whole entry): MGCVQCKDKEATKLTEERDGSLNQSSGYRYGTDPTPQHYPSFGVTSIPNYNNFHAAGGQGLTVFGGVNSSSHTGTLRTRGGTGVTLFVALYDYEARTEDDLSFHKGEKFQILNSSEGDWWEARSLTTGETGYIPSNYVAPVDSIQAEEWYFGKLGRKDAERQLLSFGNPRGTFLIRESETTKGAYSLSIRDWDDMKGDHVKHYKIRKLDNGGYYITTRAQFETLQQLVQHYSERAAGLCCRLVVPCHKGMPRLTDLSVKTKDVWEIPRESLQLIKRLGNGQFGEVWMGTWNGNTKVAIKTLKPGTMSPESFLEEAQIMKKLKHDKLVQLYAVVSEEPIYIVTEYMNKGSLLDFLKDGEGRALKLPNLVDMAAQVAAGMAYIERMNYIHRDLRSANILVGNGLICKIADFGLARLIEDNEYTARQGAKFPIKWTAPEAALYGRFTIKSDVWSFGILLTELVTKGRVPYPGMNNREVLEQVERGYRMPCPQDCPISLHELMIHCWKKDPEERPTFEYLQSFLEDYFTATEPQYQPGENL

BXPC-3 = experiment: Antiproliferative activity against human BxPC3 cells; type: functional, cell-based
[30] = target: Phosphatidylinositol 4,5-bisphosphate 3-kinase catalytic subunit alpha isoform (Homo sapiens, UniProt P42336); experiment: Inhibition of PI3Kalpha
[31] = target: Protein kinase C beta type (Homo sapiens, UniProt P05771); experiment: Inhibition of PKCbeta
[32] = target: RAC-alpha serine/threonine-protein kinase (Homo sapiens, UniProt P31749); experiment: Inhibition of PKBalpha

Serine/threonine-protein kinase B-raf, sequence (P15056 whole entry): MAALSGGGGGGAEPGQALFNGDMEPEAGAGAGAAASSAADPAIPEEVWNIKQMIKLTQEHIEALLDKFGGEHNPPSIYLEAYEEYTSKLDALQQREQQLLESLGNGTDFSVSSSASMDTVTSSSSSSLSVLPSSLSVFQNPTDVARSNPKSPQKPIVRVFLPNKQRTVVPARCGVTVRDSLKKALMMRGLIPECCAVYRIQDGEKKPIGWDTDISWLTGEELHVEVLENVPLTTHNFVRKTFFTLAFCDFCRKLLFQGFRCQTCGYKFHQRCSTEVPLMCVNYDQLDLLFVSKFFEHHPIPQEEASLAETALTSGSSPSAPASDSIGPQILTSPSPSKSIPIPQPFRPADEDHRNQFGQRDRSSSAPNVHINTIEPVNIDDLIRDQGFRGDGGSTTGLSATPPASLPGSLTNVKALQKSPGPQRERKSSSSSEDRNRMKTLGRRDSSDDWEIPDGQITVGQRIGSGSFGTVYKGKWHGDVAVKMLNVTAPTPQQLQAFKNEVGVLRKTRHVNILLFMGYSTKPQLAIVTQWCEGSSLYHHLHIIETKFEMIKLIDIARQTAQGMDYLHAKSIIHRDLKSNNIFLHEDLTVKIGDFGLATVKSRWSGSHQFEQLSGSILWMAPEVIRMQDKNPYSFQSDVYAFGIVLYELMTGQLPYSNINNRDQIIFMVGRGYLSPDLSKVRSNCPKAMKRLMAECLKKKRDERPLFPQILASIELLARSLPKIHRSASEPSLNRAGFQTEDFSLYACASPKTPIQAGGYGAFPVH

- IC50 [1]: 0.13 µM
Compound: O=C(Nc1cccc(-c2ccnc3cc(-c4ccnc(NCCCN5CCOCC5)c4)nn23)c1)c1cccc(C(F)(F)F)c1

Compound: O=C(Nc1cccc(-c2ccnc3cc(-c4ccnc(NCCCc5ncc[nH]5)c4)nn23)c1)c1cccc(C(F)(F)F)c1
- IC50 [1]: 0.066 µM

- IC50 [1]: 0.11 µM
Compound: O=C(Nc1cccc(-c2ccnc3cc(-c4ccnc(NCCCN5CCCC5=O)c4)nn23)c1)c1cccc(C(F)(F)F)c1

- IC50 [1]: 0.66 µM
Compound: O=C(Nc1cccc(-c2ccnc3cc(-c4ccncc4)nn23)c1)c1ccc(Cl)c(Cl)c1

- IC50 [1]: 1.6 µM
Compound: O=C(Nc1cccc(-c2ccnc3cc(-c4cnc[nH]4)nn23)c1)c1cccc(C(F)(F)F)c1

- IC50 [1]: 0.1 µM
Compound: Cn1cncc1-c1cc2nccc(-c3cccc(NC(=O)c4cccc(C(F)(F)F)c4)c3)n2n1

- IC50 [1]: > 10 µM
Compound: O=C(Nc1cccc(-c2ccnc3cc(-c4cccnc4)nn23)c1)c1cccc(C(F)(F)F)c1

- IC50 [1]: 0.06 µM
Compound: O=C(Nc1cccc(-c2ccnc3cc(-c4ccncc4)nn23)c1)c1ccc(Cl)c(C(F)(F)F)c1

- IC50 [1]: 0.04 µM
Compound: O=C(Nc1cccc(-c2ccnc3cc(-c4ccncc4)nn23)c1)Nc1ccc(Cl)c(C(F)(F)F)c1

- IC50 [2]: > 50 µM
- IC50 [3]: > 50 µM
- IC50 [4]: > 50 µM
- IC50 [5]: > 50 µM
- IC50 [6]: > 50 µM
- IC50 [7]: > 50 µM
- IC50 [8]: > 50 µM
- IC50 [9]: > 50 µM
- IC50 (LoVo): 0.4 µM
- IC50 [10]: > 50 µM
- IC50 [11]: > 50 µM
- IC50 [12]: > 50 µM
- half-life [13]: > 30 min
- IC50 [14]: > 50 µM
- IC50 (A-375): 0.28 µM
- IC50 [15]: > 50 µM
- IC50 (HT-29): 0.35 µM
- IC50 [16]: > 50 µM
- IC50 (Caco-2): 2.6 µM
- IC50 [18]: > 50 µM
- IC50 [19]: > 50 µM
- IC50 [20]: > 50 µM
- IC50 [21]: > 50 µM
- half-life [22]: 24 min
- IC50 [23]: > 50 µM
- IC50 [24]: > 50 µM
- IC50 [25]: > 50 µM
- Papp [26]: 251 ×10⁻⁶ cm/s
- IC50 [27]: > 50 µM
- IC50 [28]: > 50 µM
- IC50 [29]: > 50 µM
- IC50 (BXPC-3): 3.1 µM
- IC50 [30]: > 50 µM
- IC50 [31]: > 50 µM
- IC50 [32]: > 50 µM
Compound: O=C(Nc1cccc(-c2ccnc3cc(-c4ccncc4)nn23)c1)c1cccc(C(F)(F)F)c1
- IC50 [17]: 3.5 µM
